Measured values taken from patent publication US20080096894A1, “Anti-Bacterial Compounds” (ASTON UNIVERSITY, priority 2005, published 2008).
Values after ≈ are worked out from the molar mass of the structure shown. Where two headings read alike, the source gives them in different places.

Assays:
Experiment in all cases: MIC, agar dilution, multipoint inoculator
MRSA = type: cell-based, methicillin-resistant Staphylococcus aureus
Experimental: (§1) This activity was measured using a multipoint inoculator method as follows. The MIC for each compound was measured using an agar dilution method (Onda, H., et al., Int. J. Antimicrob. Agents. 18, 263 (2001)) (Mueller Hinton agar) by means of a multipoint inoculator delivering 10^4 colony forming units per spot.
‘Staph’ refers to the reference strain of S. aureus (NCTC 6571). A tick in the MRSA column refers to a positive zone against MRSA strain 96-7474, and the MIC range (in μg/ml) which follows is that found against a panel of ten MRSA strains. Where MIC values are given for MRSA, these are stated as a range of values, as testing was carried out on a panel of clinical isolates.

E. faecalis = type: cell-based; conditions: upper value of MIC reading
Experimental: as §1

S. haemolyticus = type: cell-based; conditions: S. haemolyticus Isolate 1, upper value of MIC reading
Experimental: as §1

S. maltophilia = type: cell-based; conditions: S. maltophilia NCTC 10257, upper value of MIC reading
Experimental: as §1

S. marcesens = type: cell-based, Serratia marcescens; conditions: S. marcesens 4444, upper value of MIC reading
Experimental: as §1

S. epidemisis = type: cell-based, Staphylococcus epidermidis; conditions: upper value of MIC reading
Experimental: as §1

E. faecium = type: cell-based, Enterococcus faecium; conditions: Enterococcus faecium, upper value of MIC reading, read-out: MIC
Experimental: as §1

E. coli = type: cell-based, Escherichia coli; conditions: Escherichia coli, 18 h, upper value of MIC reading
Experimental: as §1

S. aureus = type: cell-based, Staphylococcus aureus; conditions: upper value of MIC reading
Experimental: as §1

P. auriginosa = type: cell-based, Pseudomonas aeruginosa; conditions: P. auriginosa NCTC 6749, upper value of MIC reading
Experimental: as §1

K. pneumoniae = type: cell-based, Klebsiella pneumoniae; conditions: K. pneumoniae 327; upper value of MIC reading
Experimental: as §1

S. aboni = type: cell-based; conditions: S. aboni NCTC 6017; upper value of MIC reading
Experimental: as §1

B. bronchiseptica = type: cell-based; conditions: B. bronchiseptica NCTC 8344; upper value of MIC reading
Experimental: as §1

E. cloacae = type: cell-based, Enterobacter cloacae; conditions: E. cloacae NCTC 11582; upper value of MIC reading
Experimental: as §1

[1] = MRSA Isolate 1, upper value of MIC reading, in µg/mL
[2] = MRSA Isolate 2, upper value of MIC reading, in µg/mL
[3] = MRSA Isolate 3, upper value of MIC reading, in µg/mL
[4] = MRSA Isolate 4, upper value of MIC reading, in µg/mL
[5] = MRSA Isolate 5, upper value of MIC reading, in µg/mL
[6] = MRSA Isolate 10, upper value of MIC reading, in µg/mL
[7] = panel of ten MRSA strains (clinical isolates)

`CCC(C)(C)c1ccc(/C=N/N=C(\N)c2cccnc2)cc1` [Compound 3PYaf, N^1-[4-(1,1-dimethylpropyl)benzylidene]-pyridine-3-carboxamidrazone] gave an MIC (MRSA; Staphylococcus aureus, 18 h, MRSA Isolate 1, upper value of MIC reading, read-out: MIC) of 64 µg/mL (≈ 217 µM), an MIC (MRSA; Staphylococcus aureus, 18 h, MRSA Isolate 2, upper value of MIC reading, read-out: MIC) of 64 µg/mL (≈ 217 µM) and an MIC (MRSA; Staphylococcus aureus, 18 h, MRSA Isolate 3, upper value of MIC reading, read-out: MIC) of 64 µg/mL (≈ 217 µM). It also gave an MIC (MRSA; Staphylococcus aureus, 18 h, MRSA Isolate 4, upper value of MIC reading, read-out: MIC) of 64 µg/mL (≈ 217 µM), an MIC (MRSA; Staphylococcus aureus, 18 h, MRSA Isolate 5, upper value of MIC reading, read-out: MIC) of 64 µg/mL (≈ 217 µM) and an MIC (MRSA; Staphylococcus aureus, 18 h, MRSA Isolate 6, upper value of MIC reading, read-out: MIC) of 64 µg/mL (≈ 217 µM). For the same molecule, the MIC (MRSA; Staphylococcus aureus, 18 h, MRSA Isolate 7, upper value of MIC reading, read-out: MIC) was 64 µg/mL (≈ 217 µM), the MIC (MRSA; Staphylococcus aureus, 18 h, MRSA Isolate 8, upper value of MIC reading, read-out: MIC) was 64 µg/mL (≈ 217 µM) and the MIC (MRSA; Staphylococcus aureus, 18 h, MRSA Isolate 9, upper value of MIC reading, read-out: MIC) was 64 µg/mL (≈ 217 µM). It also gave an MIC (MRSA; Staphylococcus aureus, 18 h, MRSA Isolate 10, upper value of MIC reading, read-out: MIC) of 64 µg/mL (≈ 217 µM), an MIC (MRSA; Staphylococcus aureus, MRSA, 18 h, panel of ten MRSA strains (clinical isolates), read-out: MRSA MIC range) of 32 to 64 µg/mL (≈ 109 to 217 µM) and an MIC (E. faecalis; Enterococcus faecalis, 18 h, E. faecalis EBH1, read-out: MIC) of 128 µg/mL (≈ 435 µM). It also gave an MIC (E. faecalis; Enterococcus faecalis, 18 h, E. faecalis Isolate 1, read-out: MIC) of 64 µg/mL (≈ 217 µM), an MIC (E. faecalis; Enterococcus faecalis, 18 h, E. faecalis Isolate 2, read-out: MIC) of 64 µg/mL (≈ 217 µM) and an MIC (E. faecalis; Enterococcus faecalis, 18 h, E. faecalis Isolate 4, read-out: MIC) of 128 µg/mL (≈ 435 µM). It also gave an MIC (E. faecalis; Enterococcus faecalis, 18 h, E. faecalis Isolate 5, read-out: MIC) of 128 µg/mL (≈ 435 µM), an MIC (E. faecalis; Enterococcus faecalis, NCTC5957, 18 h, E. faecalis NCTC 5957, read-out: MIC) of 64 µg/mL (≈ 217 µM) and an MIC (S. haemolyticus; Staphylococcus haemolyticus, 18 h, read-out: MIC) of 64 µg/mL (≈ 217 µM). The MIC (S. maltophilia; Stenotrophomonas maltophilia, NCTC10257, 18 h, read-out: MIC) was 64 µg/mL (≈ 217 µM), the MIC (S. marcesens; Serratia marcescens, 18 h, read-out: MIC) was 256 µg/mL (≈ 870 µM) and the MIC (S. epidemisis; Staphylococcus epidermidis, 18 h, S. epidemisis Isolate 1, read-out: MIC) was 128 µg/mL (≈ 435 µM). For the same molecule, the MIC (S. epidemisis; Staphylococcus epidermidis, NCTC11047, 18 h, S. epidemisis NCTC 11047, read-out: MIC) was 32 µg/mL (≈ 109 µM), the MIC (E. faecium; 18 h, E. faecium ACTCC 10541) was 64 µg/mL (≈ 217 µM) and the MIC (E. faecium; NCTC7171, 18 h, E. faecium NCTC 7171) was 64 µg/mL (≈ 217 µM). For the same molecule, the MIC (E. coli; E. coli W3110R+) was 64 µg/mL (≈ 217 µM), the MIC (E. coli; E. coli W3110R−) was 64 µg/mL (≈ 217 µM) and the MIC (S. aureus; Staphylococcus aureus, 18 h, S. aureus Cowan 1, read-out: MIC) was 64 µg/mL (≈ 217 µM). For the same molecule, the MIC (S. aureus; Staphylococcus aureus, NCTC6571, 18 h, S. aureus NCTC 6571, read-out: MIC) was 64 µg/mL (≈ 217 µM), the MIC (S. aureus; Staphylococcus aureus, NCTC10788, 18 h, S. aureus NCTC 10788, read-out: MIC) was 64 µg/mL (≈ 217 µM) and the MIC (P. auriginosa; Pseudomonas aeruginosa, NCTC6749, 18 h, read-out: MIC) was 64 µg/mL (≈ 217 µM).
`CCOc1ccccc1C=NN=C(N)c1cccnc1` [Compound 3PYay] gave an MIC (MRSA; [1]) of 256, an MIC (MRSA; [2]) of 128 and an MIC (MRSA; [3]) of 128. The MIC (MRSA; [4]) was 128, the MIC (MRSA; [5]) was 128 and the MIC (MRSA; [6]) was 256. The “MRSA MIC range” value (MRSA; [7]) was greater than 256 µg/mL, the MIC (E. faecalis; E. faecalis EBH1) was 128 µg/mL (≈ 477 µM) and the MIC (E. faecalis; E. faecalis Isolate 1) was 128 µg/mL (≈ 477 µM). For the same molecule, the MIC (E. faecalis; E. faecalis Isolate 2) was 128 µg/mL (≈ 477 µM), the MIC (E. faecalis; E. faecalis NCTC 5957) was 128 µg/mL (≈ 477 µM) and the MIC (S. haemolyticus) was 256 µg/mL (≈ 954 µM). For the same molecule, the MIC (S. maltophilia) was 256 µg/mL (≈ 954 µM), the MIC (S. marcesens) was 256 µg/mL (≈ 954 µM) and the MIC (S. epidemisis; S. epidemisis NCTC 11047) was 128 µg/mL (≈ 477 µM). It also gave an MIC (S. aureus; S. aureus NCTC 6571) greater than 256 µg/mL, an MIC (P. auriginosa) of 128 µg/mL (≈ 477 µM) and an MIC (K. pneumoniae) of 256 µg/mL (≈ 954 µM).
In the case of `NC(=NN=Cc1c(O)ccc2ccccc12)c1cccnc1` [Compound 3PYdb], the MIC (MRSA; [1]) is reported as 256, the MIC (MRSA; [2]) is reported as 256 and the MIC (MRSA; [3]) is reported as 256. It also gave an MIC (MRSA; [4]) of 256, an MIC (MRSA; [5]) of 256 and an MIC (MRSA; MRSA Isolate 6, upper value of MIC reading, in µg/mL) of 256. The MIC (MRSA; MRSA Isolate 7, upper value of MIC reading, in µg/mL) was 256, the MIC (MRSA; MRSA Isolate 8, upper value of MIC reading, in µg/mL) was 256 and the MIC (MRSA; MRSA Isolate 9, upper value of MIC reading, in µg/mL) was 256. The MIC (MRSA; [6]) was 256, the “MRSA MIC range” value (MRSA; [7]) was 128 to 256 µg/mL and the MIC (E. faecalis; E. faecalis Isolate 2) was 256 µg/mL (≈ 882 µM). For the same molecule, the MIC (E. faecalis; E. faecalis Isolate 5) was 256 µg/mL (≈ 882 µM), the MIC (S. aboni) was 32 µg/mL (≈ 110 µM) and the MIC (S. haemolyticus) was 256 µg/mL (≈ 882 µM). The MIC (B. bronchiseptica) was 256 µg/mL (≈ 882 µM), the MIC (S. maltophilia) was 266 µg/mL (≈ 916 µM) and the MIC (S. epidemisis; S. epidemisis Isolate 1) was 256 µg/mL (≈ 882 µM). The MIC (S. epidemisis; S. epidemisis NCTC 11047) was 256 µg/mL (≈ 882 µM), the MIC (S. aureus; S. aureus Cowan 1) was 256 µg/mL (≈ 882 µM) and the MIC (S. aureus; S. aureus NCTC 6571) was 256 µg/mL (≈ 882 µM). It also gave an MIC (S. aureus; S. aureus NCTC 10788) of 256 µg/mL (≈ 882 µM), an MIC (P. auriginosa) of 256 µg/mL (≈ 882 µM) and an MIC (E. cloacae) of 256 µg/mL (≈ 882 µM). It also gave an MIC (K. pneumoniae) of 256 µg/mL (≈ 882 µM).
